Tests used:
Type in all cases: cell-based
[1] = tested on: Phospho-Rb (Ser807/811) in OVCAR3 cells; assay: Phospho-Rb expression inhibition in OVCAR3 cells quantified by In Cell Western; details: Homo sapiens, OVCAR-3, 24 hours, read-out: OVCAR-3 pRb IC50
Procedure: Phospho-Rb Expression Inhibition in OVCAR3 Cells Quantified by in Cell Western
OVCAR3 cells were obtained from American Type Culture Collection (ATCC, HTB-161). OVCAR3 cells were plated in 96-well plates (VWR #10062-900, or Corning #3904) in 90 uL culture medium at a density of 20,000 cells/well in the RPM11640 growth medium containing 10% FBS and 1% Penicillin Streptomycin, and then incubated at 37° C. overnight. The following day, the test compound was administered to the cells by using 1000× compound stock solution prepared in DMSO at various concentrations. 1000× compound stock solution was first diluted in culturing medium to 10x, then 10 uL compound medium was added to each well in the cell plates. After administration of the compound, the cells were then incubated at 37° C. for 24 hours. Upon completion, the cells were washed with PBS briefly. 150 uL/well of 4% formaldehyde was added and the plates were incubated at room temperature for 20 mins. The cells were washed with PBS briefly, and permeabilized with 150 uL/well of ice cold 100% methanol for 10 mins. The cells were washed with PBS briefly and blocked with 100 uL/well LI-COR blocking buffer for 1 hr at room temperature with gentle shaking. The cells were incubated overnight at 4° C. with 50 uL primary antibody rabbit anti-Phospho-Rb (Ser807/811) (1:500, Cell Signaling, #8516) and anti-Rb (1:200, Santa Cruz, sc-73598) diluted in Intercept Blocking Buffer (LI-COR, #927-60001) containing 0.1% Tween 20. The next day, the cells were washed with 200 uL PBS containing 0.1% Tween 20, 5×5 mins at room temperature with gentle shaking, and incubated with 50 uL secondary antibody, IRDye® 800CW Goat anti-Rabbit IgG (1:1000, LI-COR, #926-32211) and IRDye® 680RD Goat anti-Mouse IgG (1:1000, LI-COR, #926-68070), in LI-COR blocking buffer with 0.2% Tween 20 for 1 hr at room temperature with gentle shaking. The cells were washed with 200 uL PBS containing 0.1% Tween 20, 5×5 mins at room temperature with gentle shaking. The cells were washed with PBS for 5 mins. 100 uL fresh PBS was added to each well and the plates were imaged on a LI-COR Odyssey CLX plate reader.

CCNE1-normal SKOV3 cells = assay: Cell growth inhibition of CCNE1-normal SKOV3 cells (CellTiter-Glo); details: Homo sapiens, SK-OV-3, 144 h, 6 days
Procedure: Cell Growth Inhibition of CCNE1-Normal SKOV3 Cells
(§1) SKOV3 cells were obtained from American Type Culture Collection (ATCC, HTB-77). SKOV3 cells were seeded in 96-well plates at 1000 cells/well in 90 μl of RPM11640 growth medium containing 10% FBS and 1% Penicillin Streptomycin, and then incubated at 37° C. overnight. The following day, the test compound was administered to the cells by using 1000× compound stock solution prepared in DMSO at various concentrations. 1000× compound stock solution was first diluted in culturing medium to 10x, then 10 uL compound medium was added to each well in the cell plates. After administration of the compound, the cells were then incubated at 37° C. for 6 days. Upon completion, the plates were equilibrated at room temperature for approximately 10 minutes. 100 ul of CellTiter-Glo® Reagent (Promega) was added to each well. The plates were then incubated at room temperature for 10 minutes and luminescence was recorded by EnSpire plate reader (PerkinElmer).

[2] = tested on: CCNE1-amplified OVCAR3 cells; assay: Cell growth inhibition of CCNE1-amplified OVCAR3 cells (CellTiter-Glo); details: Homo sapiens, OVCAR-3, 144 h, 6 days
Procedure: Cell Growth Inhibition of CCNE1-Amplified OVCAR3 Cells
as §1, with “OVCAR3 cells” for “SKOV3 cells were obtained from American Type Culture Collection (ATCC, HTB-77). SKOV3 cells”, “at 2000” for “at 1000”

| Compound | IC50 [1] [nM] | IC50 (CCNE1-normal SKOV3 cells) [nM] | IC50 [2] [nM] |
| --- | --- | --- | --- |
| O=C1NC23CC(CCCc4cc(cc(C(F)F)n4)Nc4cc(n[nH]4)[C@H]4CC[C@H](C4)O1)(C2)C3 [Compound 98, (1^1S,1^3R,Z)-4^6-(difluoromethyl)-2^1H-11-oxa-3,9-diaza-4(4,2)-pyridina-2(3,5)-pyrazola-8(1,3)-bicyclo[1.1.1]pentana-1(1,3)-cyclopentanacycloundecaphan-10-one] | ≤ 2 | 10 to 50 | ≤ 2 |
| C[C@H]1CCC(C)(C)NC(=O)O[C@@H]2CC[C@@H](C2)c2cc([nH]n2)Nc2ccnc(c2)O1 [Compound 113, (1^1S,1^3R,6S,Z)-6,9,9-trimethyl-2^1H-5,12-dioxa-3,10-diaza-4(4,2)-pyridina-2(3,5)-pyrazola-1(1,3)-cyclopentanacyclododecaphan-11-one] | ≤ 2 | 10 to 50 | 2 to 10 |
| O=C1NC23CC(CCCc4cncc(c4)Nc4cc(n[nH]4)[C@H]4CC[C@H](C4)O1)(C2)C3 [Compound 118, (1^1S,1^3R,Z)-2^1H-11-oxa-3,9-diaza-4(3,5)-pyridina-2(3,5)-pyrazola-8(1,3)-bicyclo[1.1.1]pentana-1(1,3)-cyclopentanacycloundecaphan-10-one] | ≤ 2 | 10 to 50 | ≤ 2 |
| C[C@H]1CCC(C)(C)NC(=O)O[C@@H]2CC[C@@H](C2)c2cc([nH]n2)Nc2cncc(c2)O1 [Compound 124, (1^1S,1^3R,6S,Z)-6,9,9-trimethyl-2^1H-5,12-dioxa-3,10-diaza-4(3,5)-pyridina-2(3,5)-pyrazola-1(1,3)-cyclopentanacyclododecaphan-11-one] | ≤ 2 | 10 to 50 | 2 to 10 |
| C[C@@H]1/C=C/COc2cc(ccn2)Nc2cc(n[nH]2)[C@H]2CC[C@H](C2)OC(=O)N1 [Compound 138, (1^1S,1^3R,2^4Z,7E,9R)-9-methyl-2^1H-5,12-dioxa-3,10-diaza-4(4,2)-pyridina-2(3,5)-pyrazola-1(1,3)-cyclopentanacyclododecaphan-7-en-11-one] | 10 to 50 | > 1250 | 50 to 250 |
| O=C1NC2CC(CCc3cncc(c3)Nc3cc(n[nH]3)[C@H]3CC[C@H](C3)O1)C2 [Compound 141, (1^1S,1^3R,7^1R,7^3R,Z)-2^1H-10-oxa-3,8-diaza-4(3,5)-pyridina-2(3,5)-pyrazola-1(1,3)-cyclopentana-7(1,3)-cyclobutanacyclodecaphan-9-one] | ≤ 2 | 50 to 250 | 2 to 10 |
| O=C1NC2(CCCCc3cncc(c3)Nc3cc(n[nH]3)[C@H]3CC[C@H](C3)O1)CC2 [Compound 142, (1′S,3′R,Z)-spiro[cyclopropane-1,9′-12-oxa-3,10-diaza-4(3,5)-pyridina-2(3,5)-pyrazola-1(1,3)-cyclopentanacyclododecaphan]-11′-one] | 2 to 10 | 250 to 1250 | 10 to 50 |
| C[C@@H]1Oc2cc(ccn2)Nc2cc(n[nH]2)[C@H]2CC[C@H](C2)OC(=O)N[C@H]2C[C@@H]1C2 [Compound 145, (1^1S,1^3R,7^1S,7^3R,6S,Z)-6-methyl-2^1H-5,10-dioxa-3,8-diaza-4(4,2)-pyridina-2(3,5)-pyrazola-1(1,3)-cyclopentana-7(1,3)-cyclobutanacyclodecaphan-9-one] | 50 to 250 | > 1250 | 50 to 250 |
| C[C@H]1Oc2cncc(c2)Nc2cc(n[nH]2)[C@H]2CC[C@H](C2)OC(=O)N[C@H]2C[C@@H]1C2 [Compound 147, (1^1S,1^3R,7^1S,7^3S,6R,Z)-6-methyl-2^1H-5,10-dioxa-3,8-diaza-4(3,5)-pyridina-2(3,5)-pyrazola-1(1,3)-cyclopentana-7(1,3)-cyclobutanacyclodecaphan-9-one] | 50 to 250 | > 1250 | 50 to 250 |
| C[C@H]1C/C=C\C(F)(F)c2cc(ccn2)Nc2cc(n[nH]2)[C@H]2CC[C@H](C2)OC(=O)N1 [Compound 167, (1^1S,1^3R,2^4Z,9S)-5,5-difluoro-9-methyl-2^1H-12-oxa-3,10-diaza-4(4,2)-pyridina-2(3,5)-pyrazola-1(1,3)-cyclopentanacyclododecaphan-6-en-11-one] | 2 to 10 | 250 to 1250 | 10 to 50 |
